In patent US12472193B2, “Methods and compositions for treating and preventing respiratory related diseases and conditions with xylitol-headgroup lipid analogs” (National Jewish Health, priority 2017, dated 2025):

Legend:
[1] = Inflammatory burden caused by intranasal inoculation of 18:1 DEPX; format: in vivo, mouse
Description: Doses of 18:1 DEPX ranging from 35 μg to 1 mg were administered to mice by intranasal inoculation. The inflammatory burden caused by delivery of the synthetic lipid to the mouse lung was assessed 24 hours following inoculation. At 24 hours, mice were sacrificed and BALF was collected. The cells in BALF were quantified and cell populations within the lavage fluid were assessed by staining and cytospin analysis.
In order to determine the dose of 18:1 DEPX that is used in RSV challenge experiments, the toxic effects of the lipid were studied by the inflammatory response it elicits following delivery. A range of doses of 18:1 DEPX, from 35 μg to 1 mg, was instilled intranasally to 6-8 week old female BALB/C mice. Mice were sacrificed 24 hours following lipid delivery to best assess immediate inflammatory response. Mouse lungs were lavaged with 1 mL PBS and BALF was assessed for total inflammatory cellular infiltrates quantitatively and further characterized for cell populations by cytospin.
Following quantification of cells in 1 mL BALF, cells were subjected to cytospin and fixed and stained on microscope slides. 500 cells were counted from each slide and the numbers of macrophages, neutrophils and lymphocytes recorded. Delivery of 18:1 DEPX to mice elicits an inflammatory response determined by the influx of neutrophils found in lavage. […] Therefore, a dose of 100 μg 18:1 DEPX was chosen to perform RSV challenge experiments.

RSV = test: 18:1 DEPX interference with RSV infection in vivo (BALB/c mice); parameters: species or system mouse; conditions: 250 μg 18:1 DEPX intranasal, day 6

Q: Which “BALF cell counts compared to PBS control” value ([1]; 35 μg, 75 μg, 150 μg and 250 μg intranasal, 24 hours) does the source give for CCCCCCCCC=CCCCCCCCCOCC(COP(=O)(O)OCC(O)C(O)C(O)CO)OCCCCCCCCC=CCCCCCCCC (mixture of isomers) [18:1 DEPX, sn-1-O-octadecenyl, sn-2-O-octadecenyl sn-3 glycerol phosphoxylitol] here?
A: did not have cell counts distinguishable from the control

Q: What about the “neutrophils in BALF (cytospin)” value ([1]; 75 μg intranasal, 24 hours) of the same compound?
A: significant numbers of neutrophils

Q: What about the “BALF cell counts compared to PBS control” value ([1]; 300 μg, 500 μg and 1 mg intranasal, 24 hours) of the same compound?
A: significantly higher cell counts

Q: What about the mortality ([1]; 1 mg intranasal) of the same compound?
A: One mouse in the group that received 1 mg of 18:1 DEPX died

Q: And the “dose giving significant cellular infiltrates compared to control mice” value ([1]; intranasal, 24 hours)?
A: ≥ 300 µg

Q: What about the “doses accompanied with significant cellular infiltrates compared with PBS control” value ([1]; intranasal, 24 hours) of the same compound?
A: ≥ 300 µg

Q: What about the “reduction of viral burden by a factor of (qRT-PCR, FIGS. 12A and 12B)” value (RSV) of the same compound?
A: 6.2
